Measurements reported in patent publication USRE45313E1, “Exendin variant peptides” (priority 1999, dated 2014).

Columns and labels:
[1] = target: dipeptidyl aminopeptidase IV (Sus scrofa, UniProt P22411); test: In vitro stability in dipeptidyl aminopeptidase IV solution; details: pH 8; for half-life at 0.1 mg/ml: isolated enzyme dpp iv
Experimental: (§1) A SHT200D block heater from Stuart Scientific was used for heating of the peptide/enzyme solutions during the stability experiments. The degradation of the test compounds was studied at 37° C. in 50 mM phosphate buffer solutions of pH 7.4 containing leucine aminopeptidase (25 U/ml) or carboxypeptidase A (1 U/ml) or 100 mM ammoniumbicarbonate buffer of pH 8.0 containing dipeptidyl aminopeptidase IV (0.5 U/ml). Experiments were initiated by addition of an aliquot (100 μl) of a stock solution (1 mg/ml) of the peptide in water to 900 μl preheated enzyme solution in an Eppendorf microvial giving an initial concentration of 0.1 mg/ml (˜1.7·10−5-1.8·10−5 M) of the peptide. The peptide/enzyme solution was kept at 37° C. and at appropriate time intervals samples of 100 μl were withdrawn from the peptide/enzyme solution and mixed thoroughly with 20 μl 25% TFA in acetonitrile in order to stop the enzymatic degradation process. The inactivated samples were transferred to autosampler vials and analysed for content of intact test compound by HPLC as described below.
(§2) Samples from the stability experiments performed as described above were analysed by gradient HPLC analysis using the instrumentation described above and the following experimental conditions.
(§3) In vitro stability studies with the present peptides and peptide conjugates in the presence of selected proteolytic enzymes are applied as a tool for evaluating the protection of said peptides against proteolysis in vivo.
(§4) Water used was of highest quality obtained from a Milli-Q water treatment system (Millipore, Bedford, Mass., U.S.A.). Acetonitrile (ACN) was of super gradient quality obtained from Labscan Ltd. (Dublin, Ireland). […] Leucine aminopeptidase (EC 3.4.11.1), Carboxypeptidase A (EC 3.4.17.1) and Dipeptidyl peptidase (Dipeptidyl aminopeptidase IV, EC 3.4.14.5) were all obtained from Sigma (St. Louis, Mo., U.S.A.). Gradient HPLC analysis was done using a Hewlett Packard HP 1100 HPLC system consisting of a HP 1100 Binary Pump, a HP 1100 Autosampler, A HP 1100 Column Thermostat and a HP 1100 Variable Wavelength Detector. Hewlett Packard Chem-station for LC software (Rev. A.06.01) was used for instrument control and data acquisition. A Vydac 238TP54 (150×4.6 mm I.D.) column packed with 5 μm, C18, 300 Å

[2] = target: T1, leucine aminopeptidase (Sus scrofa, UniProt P28839); test: In vitro stability in leucine aminopeptidase solution; details: pH 7.4; for half-life at 0.1 mg/ml: isolated enzyme aminopeptidase
T1 sequence (P28839 1-519): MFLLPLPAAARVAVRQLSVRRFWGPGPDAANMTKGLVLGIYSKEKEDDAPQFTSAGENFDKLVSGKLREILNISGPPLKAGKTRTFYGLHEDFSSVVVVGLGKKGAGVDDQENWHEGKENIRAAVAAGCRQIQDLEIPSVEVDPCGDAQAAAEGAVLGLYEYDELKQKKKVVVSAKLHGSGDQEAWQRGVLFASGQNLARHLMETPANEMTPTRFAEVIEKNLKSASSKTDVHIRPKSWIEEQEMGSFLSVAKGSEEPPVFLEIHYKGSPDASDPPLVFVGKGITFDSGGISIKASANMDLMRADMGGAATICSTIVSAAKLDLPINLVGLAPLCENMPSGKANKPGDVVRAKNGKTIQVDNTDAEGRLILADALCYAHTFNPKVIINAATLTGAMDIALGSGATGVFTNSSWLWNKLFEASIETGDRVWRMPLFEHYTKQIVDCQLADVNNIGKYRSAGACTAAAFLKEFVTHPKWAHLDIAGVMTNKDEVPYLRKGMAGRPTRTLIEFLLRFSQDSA
Experimental: as §1, §2, §3, §4

[3] = target: T2, carboxypeptidase A (Bos taurus, UniProt P00730); test: In vitro stability in carboxypeptidase A solution; details: pH 7.4; for half-life at 0.1 mg/ml: isolated enzyme carboxypeptidase
T2 sequence (P00730 111-419): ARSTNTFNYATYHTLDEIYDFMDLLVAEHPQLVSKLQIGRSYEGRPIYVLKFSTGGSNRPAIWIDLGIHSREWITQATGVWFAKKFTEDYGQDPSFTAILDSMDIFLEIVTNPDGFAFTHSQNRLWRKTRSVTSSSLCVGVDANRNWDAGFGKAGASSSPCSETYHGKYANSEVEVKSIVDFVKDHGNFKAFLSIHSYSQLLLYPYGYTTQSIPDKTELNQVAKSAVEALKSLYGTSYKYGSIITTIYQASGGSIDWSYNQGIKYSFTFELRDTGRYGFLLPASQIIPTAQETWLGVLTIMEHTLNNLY
Experimental: as §1, §2, §3, §4

[4] = in vivo
Experimental: Compound 4 (batch No. ZP 7.97-5-F, 4053 g/mol) and Compound (iii) (batch No. ZP 7.73-2-G, 3854 g/mol) were synthesised in-house using the Fmoc strategy.
Plasma (250 μl) was transferred to ice-chilled 0.75 ml PLC vials containing 250 μl extraction solution (MeCN: 0.18 M Ammonium Carbonate pH 9.5, 10:90 v/v). The plasma samples were stored at −20 C until SPE and LC/MS analysis.

dipeptidyl aminopeptidase IV, sequence (P22411 whole entry): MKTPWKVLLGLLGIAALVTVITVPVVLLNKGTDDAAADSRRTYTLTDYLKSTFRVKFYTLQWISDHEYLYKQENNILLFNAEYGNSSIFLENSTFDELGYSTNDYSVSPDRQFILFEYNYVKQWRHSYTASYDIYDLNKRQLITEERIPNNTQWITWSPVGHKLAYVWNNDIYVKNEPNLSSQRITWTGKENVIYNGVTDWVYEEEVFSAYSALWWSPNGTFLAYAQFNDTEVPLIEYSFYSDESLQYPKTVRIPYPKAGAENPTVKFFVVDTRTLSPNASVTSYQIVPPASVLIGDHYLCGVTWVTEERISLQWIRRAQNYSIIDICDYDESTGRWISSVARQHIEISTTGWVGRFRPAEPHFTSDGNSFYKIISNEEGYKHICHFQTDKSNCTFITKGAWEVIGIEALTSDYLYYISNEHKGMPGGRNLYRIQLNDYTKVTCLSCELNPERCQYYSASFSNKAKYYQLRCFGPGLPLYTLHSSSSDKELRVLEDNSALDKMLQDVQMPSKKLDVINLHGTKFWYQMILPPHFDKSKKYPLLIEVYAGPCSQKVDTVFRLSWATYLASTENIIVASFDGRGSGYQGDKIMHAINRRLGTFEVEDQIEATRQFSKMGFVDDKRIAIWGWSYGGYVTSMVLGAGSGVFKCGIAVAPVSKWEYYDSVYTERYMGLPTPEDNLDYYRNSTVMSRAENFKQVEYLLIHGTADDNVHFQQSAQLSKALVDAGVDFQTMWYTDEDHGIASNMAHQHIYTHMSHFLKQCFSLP

| SMILES | half-life [1] [h] | half-life [2] [h] | half-life [3] [h] | half-life at 0.1 mg/ml [1] [h] | detected in the plasma samples (rats) ([4]; intra duodenal administration of 1.000 nmol/kg) | detected in the plasma samples (rats) ([4]; intra duodenal administration of 10.000 nmol/kg) | half-life at 0.1 mg/ml [2] [h] | half-life at 0.1 mg/ml [3] [h] | level at time molar ([4]; Sprague-Dawley, rat, plasma, 10 nmol/kg) [nM] |
| --- | --- | --- | --- | --- | --- | --- | --- | --- | --- |
| CCCCCCCCCCCCCCCC(=O)NCCCC[C@H](NC(=O)[C@H](CCCNC(=N)N)NC(=O)CNC(=O)[C@H](CCCCN)NC(=O)[C@@H](NC(=O)[C@H](CC(C)C)NC(=O)[C@H](Cc1c[nH]c2ccccc12)NC(=O)[C@H](C)NC(=O)[C@@H](NC(=O)[C@H](Cc1ccccc1)NC(=O)[C@H](CCC(=O)O)NC(=O)[C@H](CCCCN)NC(=O)[C@H](C)NC(=O)[C@H](C)NC(=O)[C@H](CCC(N)=O)NC(=O)CNC(=O)[C@H](CCC(=O)O)NC(=O)[C@H](CC(C)C)NC(=O)[C@H](Cc1ccc(O)cc1)NC(=O)[C@H](CO)NC(=O)[C@H](CO)NC(=O)[C@@H](NC(=O)[C@H](CC(=O)O)NC(=O)[C@H](CO)NC(=O)[C@@H](NC(=O)[C@H](Cc1ccccc1)NC(=O)[C@@H](NC(=O)CNC(=O)[C@H](CCC(=O)O)NC(=O)CNC(=O)[C@@H](N)Cc1c[nH]cn1)[C@@H](C)O)[C@@H](C)O)C(C)C)[C@@H](C)CC)C(C)C)C(=O)N[C@@H](CCCCN)C(=O)N[C@@H](CCCCN)C(=O)N[C@@H](CCCCN)C(=O)N[C@@H](CCCCN)C(=O)N[C@@H](CCCCN)C(=O)N[C@@H](CCCCN)C(N)=O [Compound 5] | 7.33 | > 72 | > 48 | – | – | – | – | – | – |
| CC[C@H](C)[C@H](NC(=O)[C@H](Cc1ccccc1)NC(=O)[C@H](CCC(=O)O)NC(=O)[C@H](CCCCN)NC(=O)[C@H](C)NC(=O)[C@H](C)NC(=O)[C@H](CCC(N)=O)NC(=O)CNC(=O)[C@H](CCC(=O)O)NC(=O)[C@H](CC(C)C)NC(=O)[C@H](Cc1ccc(O)cc1)NC(=O)[C@H](CO)NC(=O)[C@H](CO)NC(=O)[C@@H](NC(=O)[C@H](CC(=O)O)NC(=O)[C@H](CO)NC(=O)[C@@H](NC(=O)[C@H](Cc1ccccc1)NC(=O)[C@@H](NC(=O)CNC(=O)[C@H](CCC(=O)O)NC(=O)CNC(=O)[C@@H](N)Cc1c[nH]cn1)[C@@H](C)O)[C@@H](C)O)C(C)C)C(=O)N[C@@H](C)C(=O)N[C@@H](Cc1c[nH]c2ccccc12)C(=O)N[C@@H](CC(C)C)C(=O)N[C@H](C(=O)N[C@@H](CCCCN)C(=O)NCC(=O)N[C@@H](CCCNC(=N)N)C(=O)N[C@@H](CCCCN)C(=O)N[C@@H](CCCCN)C(=O)N[C@@H](CCCCN)C(=O)N[C@@H](CCCCN)C(=O)N[C@@H](CCCCN)C(=O)N[C@@H](CCCCN)C(N)=O)C(C)C [Compound 4] | – | – | – | 4.87 | two out of four rats | four out of five rats | ~36 | 2.42 | – |
| CC[C@H](C)[C@H](NC(=O)[C@H](Cc1ccccc1)NC(=O)[C@H](CCC(=O)O)NC(=O)[C@H](CCCCN)NC(=O)[C@H](C)NC(=O)[C@H](C)NC(=O)[C@H](CCC(N)=O)NC(=O)CNC(=O)[C@H](CCC(=O)O)NC(=O)[C@H](CC(C)C)NC(=O)[C@H](Cc1ccc(O)cc1)NC(=O)[C@H](CO)NC(=O)[C@H](CO)NC(=O)[C@@H](NC(=O)[C@H](CC(=O)O)NC(=O)[C@H](CO)NC(=O)[C@@H](NC(=O)[C@H](Cc1ccccc1)NC(=O)[C@@H](NC(=O)CNC(=O)[C@H](CCC(=O)O)NC(=O)CNC(=O)[C@@H](N)Cc1cnc[nH]1)[C@@H](C)O)[C@@H](C)O)C(C)C)C(=O)N[C@@H](C)C(=O)N[C@@H](Cc1c[nH]c2ccccc12)C(=O)N[C@@H](CC(C)C)C(=O)N[C@H](C(=O)N[C@@H](CCCCN)C(=O)NCC(=O)N[C@@H](CCCNC(=N)N)C(N)=O)C(C)C [Compound (iii), reference compound] | – | – | – | 0.933 | – | – | 11.6 | 2.12 | < 0.5 |
